Test results as given in patent publication US12630547B2, “RAS protein degraders, pharmaceutical compositions thereof, and their therapeutic applications” (BioTheryX, Inc., priority 2019, dated 2026).

Experiments:
Assay type in all cases: cell-based
H23 cells = assay: Cell viability assay (CELLTITER-GLO), H23 cells; settings: Table 4; 3 days
Protocol: (§1) MOLM-13 cells, MV-4-11 cells, H23, and H358 cells were independently cultured in RPMI 1640 media supplemented with 10% fetal bovine serum, streptomycin and penicillin. The cells were plated in white walled 96-well plates at 4,000 cells/well. The cells were incubated in DMSO (control) or a compound for 3 days at 37° C. under 5% CO2. A CELLTITER-GLO® reagent (100 μL) was then added to each well. After a 10 min incubation with shaking, luminescence was measured using an ENVISION® multimode plate reader.
(§2) IC50 values are summarized in Table 4, where “A” represents an IC50 value of no greater than 1 μM, “B” represents an IC50 value of greater than 1 μM and no greater than 5 μM, “C” represents an IC50 value of greater than 5 μM and no greater than 10 μM, and “D” represents an IC50 value of greater than 10 μM.

MOLM-13 cells = assay: Cell viability assay (CELLTITER-GLO), MOLM-13 cells; settings: Homo sapiens, MOLM-13, 72 h; Table 2; compound at 10 μM, 3 days; read-out: Effect on MOLM-13 cell viability (% DMSO)
Protocol: as §1
In Tables 1 and 2, each compound was tested at 10 μM; and in Table 3, each compound was tested at 1 μM. In Tables 1 to 3, the cell viability values as % DMSO are reported as “A,” “B,” “C,” or “D;” where “A” represents a % viability value of less than 10%; “B” represents a % viability value of no less than 10% and less than 25%; “C” represents a % viability value of no less than 25% and less than 50%; and “D” represents a % viability value of no less than 50%. Compound A is […]

H358 cells = assay: Cell viability assay (CELLTITER-GLO), H358 cells; settings: Table 4; 3 days
Protocol: as §1
In Tables 1 and 2, each compound was tested at 10 μM; and in Table 3, each compound was tested at 1 μM. In Tables 1 to 3, the cell viability values as % DMSO are reported as “A,” “B,” “C,” or “D;” where “A” represents a % viability value of less than 10%; “B” represents a % viability value of no less than 10% and less than 25%; “C” represents a % viability value of no less than 25% and less than 50%; and “D” represents a % viability value of no less than 50%. Compound A is
as §2

SMILES | Inhibition of H23 cells, IC50 (class) (H23 cells) | viability at 10 µM (MOLM-13 cells) | Inhibition of H358 cells, IC50 (class) (H358 cells)
CCC(=O)N1CCN(c2ncnc3c(Cl)c(-c4c(F)cccc4OCCCCCCCCN4CCC(c5cc(F)cc6c5CN(C5CCC(=O)NC5=O)C6=O)CC4)c(F)cc23)CC1 (stereo not drawn) [Compound 20, 3-(4-(1-(8-(2-(8-Chloro-6-fluoro-4-(4-propionylpiperazin-1-yl)quinazolin-7-yl)-3-fluorophenoxy)octyl)piperidin-4-yl)-6-fluoro-1-oxoisoindolin-2-yl)piperidine-2,6-dione] | B′ | < 10% | B′
C=CC(=O)N1CCN(c2ncnc3c(F)c(-c4c(F)cccc4OCCOCCOCCOCCNc4cccc5c4C(=O)N(C4CCC(=O)NC4=O)C5=O)c(Cl)cc23)CC1 (stereo not drawn) [Compound 23, 4-((2-(2-(2-(2-(2-(4-(4-Acryloylpiperazin-1-yl)-6-chloro-8-fluoroquinazolin-7-yl)-3-fluorophenoxy)ethoxy)ethoxy)ethoxy)ethyl)amino)-2-(2,6-dioxopiperidin-3-yl)isoindoline-1,3-dione] | B′ | < 10% | B′
C=CC(=O)N1CCN(c2ncnc3c(F)c(-c4c(F)cccc4OCCCCCCCNCc4ccc(OCc5scc6c5CN([C@H]5CCC(=O)NC5=O)C6=O)cc4)c(Cl)cc23)CC1 [Compound 24, (3S)-3-(1-((4-(((7-(2-(4-(4-Acryloylpiperazin-1-yl)-6-chloro-8-fluoroquinazolin-7-yl)-3-fluorophenoxy)heptyl)amino)methyl)phenoxy)methyl)-4-oxo-4H-thieno[3,4-c]pyrrol-5(6H)-yl)piperidine-2,6-dione] | B′ | < 10% | B′
CCC(=O)N1CCN(c2nc(OCCOCCOCCOCCNc3cccc4c3C(=O)N(C3CCC(=O)NC3=O)C4=O)nc3c2CCN(c2cccc4ccccc24)C3)C[C@H]1C (stereo partly drawn) [Compound 48, 2-(2,6-Dioxopiperidin-3-yl)-4-((2-(2-(2-(2-((4-((R)-3-methyl-4-propionylpiperazin-1-yl)-7-(naphthalen-1-yl)-5,6,7,8-tetrahydropyrido[3,4-d]pyrimidin-2-yl)oxy)ethoxy)ethoxy)ethoxy)ethyl)-amino)isoindoline-1,3-dione] | D′ |  | D′
CCC(=O)N1CCN(c2ncnc3c(Cl)c(-c4c(F)cccc4OCCCCCCCCN4CCC(c5cc(F)cc6c5CN(C5CCC(=O)NC5=O)C6=O)CC4)c(F)cc23)CC1 [Compound 49, 3-(4-(1-(8-((R)-2-(8-Chloro-6-fluoro-4-(4-propionylpiperazin-1-yl)quinazolin-7-yl)-3-fluorophenoxy)octyl)piperidin-4-yl)-6-fluoro-1-oxoisoindolin-2-yl)piperidine-2,6-dione] | B′ |  | B′
C=CC(=O)N1CCN(c2ncnc3c(F)c(-c4c(F)cccc4OCCCCCCC(=O)N[C@H](C(=O)N4C[C@H](O)C[C@H]4C(=O)NCc4ccc(-c5scnc5C)cc4)C(C)(C)C)c(Cl)cc23)CC1 [Compound 50, (2S,4R)-1-((2S)-2-(7-(2-(4-(4-Acryloylpiperazin-1-yl)-6-chloro-8-fluoroquinazolin-7-yl)-3-fluorophenoxy)heptanamido)-3,3-dimethylbutanoyl)-4-hydroxy-N-(4-(4-methylthiazol-5-yl)benzyl)pyrrolidine-2-carboxamide] | B′ |  | A′
O=C1CCC(N2Cc3c(cc(F)cc3C3CCN(CCCCCCCOc4cccc(F)c4-c4c(Cl)cc5c(N6CCN(C(=O)C7CCCC7)CC6)ncnc5c4F)CC3)C2=O)C(=O)N1 (stereo not drawn) [Compound 51, 3-(4-(1-(7-(2-(6-Chloro-4-(4-(cyclopentanecarbonyl)piperazin-1-yl)-8-fluoroquinazolin-7-yl)-3-fluorophenoxy)heptyl)piperidin-4-yl)-6-fluoro-1-oxoisoindolin-2-yl)piperidine-2,6-dione] | B′ |  | B′
O=C1CCC(N2Cc3c(cc(F)cc3C3CCN(CCCCCCCOc4cccc(F)c4-c4c(Cl)cc5c(N6CCN(C(=O)C7CCOCC7)CC6)ncnc5c4F)CC3)C2=O)C(=O)N1 (stereo not drawn) [Compound 52, 3-(4-(1-(7-(2-(6-Chloro-8-fluoro-4-(4-(tetrahydro-2H-pyran-4-carbonyl)piperazin-1-yl)quinazolin-7-yl)-3-fluorophenoxy)heptyl)piperidin-4-yl)-6-fluoro-1-oxoisoindolin-2-yl)piperidine-2,6-dione] | B′ |  | C′
O=C1CCC(N2Cc3c(cc(F)cc3C3CCN(CCCCCCCOc4cccc(F)c4-c4c(Cl)cc5c(N6CCN(C(=O)CC7CC7)CC6)ncnc5c4F)CC3)C2=O)C(=O)N1 (stereo not drawn) [Compound 53, 3-(4-(1-(7-(2-(6-Chloro-4-(4-(2-cyclopropylacetyl)piperazin-1-yl)-8-fluoroquinazolin-7-yl)-3-fluorophenoxy)heptyl)piperidin-4-yl)-6-fluoro-1-oxoisoindolin-2-yl)piperidine-2,6-dione] | B′ |  | B′
O=C1CCC(N2Cc3c(cc(F)cc3C3CCN(CCCCCCCOc4cccc(F)c4-c4c(Cl)cc5c(N6CCN(C(=O)C7CCOC7)CC6)ncnc5c4F)CC3)C2=O)C(=O)N1 (stereo not drawn) [Compound 54, 3-(4-(1-(7-(2-(6-Chloro-8-fluoro-4-(4-(tetrahydrofuran-3-carbonyl)piperazin-1-yl)quinazolin-7-yl)-3-fluorophenoxy)heptyl)piperidin-4-yl)-6-fluoro-1-oxoisoindolin-2-yl)piperidine-2,6-dione] | B′ |  | C′
CCC(=O)N1CCN(c2ncnc3c(F)c(-c4c(F)cccc4OCCCCCN4CCC(c5cc(F)cc6c5CN(C5CCC(=O)NC5=O)C6=O)CC4)c(Cl)cc23)CC1 (stereo not drawn) [Compound 60, 3-(4-(1-(5-(2-(6-Chloro-8-fluoro-4-(4-propionylpiperazin-1-yl)quinazolin-7-yl)-3-fluorophenoxy)pentyl)piperidin-4-yl)-6-fluoro-1-oxoisoindolin-2-yl)piperidine-2,6-dione] | C′ |  | D′
CCC(=O)N1CCN(c2nc(NCCC(=O)N(C)C)nc3c(F)c(-c4c(F)cccc4OCCCCCCCN4CCC(c5cc(F)cc6c5CN(C5CCC(=O)NC5=O)C6=O)CC4)c(Cl)cc23)CC1 (stereo not drawn) [Compound 86, 3-((6-Chloro-7-(2-((7-(4-(2-(2,6-dioxopiperidin-3-yl)-6-fluoro-1-oxoisoindolin-4-yl)piperidin-1-yl)heptyl)oxy)-6-fluorophenyl)-8-fluoro-4-(4-propionylpiperazin-1-yl)quinazolin-2-yl)amino)-N,N-dimethylpropanamide] | B′ |  | B′
C=C(Cl)C(=O)N1CCN(c2ncnc3c(F)c(-c4c(F)cccc4OCCCCCCCN4CCCC(c5cc(F)cc6c5CN(C5CCC(=O)NC5=O)C6=O)C4)c(Cl)cc23)CC1 (stereo not drawn) [Compound 106, 3-(4-(1-(7-(2-(6-Chloro-4-(4-(2-chloroacryloyl)piperazin-1-yl)-8-fluoroquinazolin-7-yl)-3-fluorophenoxy)heptyl)piperidin-3-yl)-6-fluoro-1-oxoisoindolin-2-yl)piperidine-2,6-dione] | A′ |  | A′
C=C(Cl)C(=O)N1CCN(c2ncnc3c(F)c(-c4c(F)cccc4OCCc4ccc(CCN5CCC(c6cc(F)cc7c6CN(C6CCC(=O)NC6=O)C7=O)CC5)cc4)c(Cl)cc23)C[C@H]1CC#N (stereo partly drawn) [Compound 131, 2-((2R)-4-(6-Chloro-7-(2-(4-(2-(4-(2-(2,6-dioxopiperidin-3-yl)-6-fluoro-1-oxoisoindolin-4-yl)piperidin-1-yl)ethyl)phenethoxy)-6-fluorophenyl)-8-fluoroquinazolin-4-yl)-1-(2-chloroacryloyl)piperazin-2-yl)acetonitrile] | A′ |  | A′
C=C(Cl)C(=O)N1CCN(c2nc(OC[C@@H]3CCCN3C)nc3c(F)c(-c4c(F)cccc4OCCCCCCCN4CCC(c5cc6c(cc5F)C(=O)N(C5CCC(=O)NC5=O)C6)CC4)c(Cl)cc23)C[C@H]1CC#N (stereo partly drawn) [Compound 132, 2-((2R)-4-(6-Chloro-7-(2-((7-(4-(2-(2,6-dioxopiperidin-3-yl)-6-fluoro-1-oxoisoindolin-5-yl)piperidin-1-yl)heptyl)oxy)-6-fluorophenyl)-8-fluoro-2-(((S)-1-methylpyrrolidin-2-yl)methoxy)quinazolin-4-yl)-1-(2-chloroacryloyl)piperazin-2-yl)acetonitrile] | B′ |  | B′
